From patent US7947696B2, “2-amino-4-phenylquinazoline derivatives and the use thereof as HSP90 modulators” (Merck Patent GmbH, priority 2005, dated 2011) come the findings set out here.

pIC50: −log10 of the molar value. Where a name gives a salt, the structure may show the parent alone.

Usually pIC50 stands for the IC50 on a negative log10 scale, so that one unit is a factor of ten.

This test has as its target T1, Recombinant human HSP90α (Homo sapiens, UniProt P07900).
T1 construct: host or cells: E. coli
The experiment in a line: radioligand filter binding test, competition with [3H]17AAG for HSP90. To be noted: [3H]17AAG 0.08 μM, HSP90 1.5 μg/assay, 22° C., 30 min, pH 7.0. The text has this: The binding of geldanamycin or 17-allylamino-17-demethoxygeldanamycin (17AAG) to HSP90 and competitive inhibition thereof can be utilised in order to determine the inhibitory activity of the compounds according to the invention (Carreras et al. 2003, Chiosis et al. 2002).
In the specific case, a radioligand filter binding test is used. The radioligand used here is tritium-labelled 17-allylaminogeldanamycin, [3H]17AAG. This filter binding test allows a targeted search for inhibitors which interfere with the ATP binding site.
Recombinant human HSP90α(E. coli expressed, 95% purity); [3H]17AAG (17-allylaminogeldanamycin, [allylamino-2,3-^3H. Specific activity: 1.11×10^12 Bq/mmol (Moravek, MT-1717); HEPES filter buffer (50 mM HEPES, pH 7.0, 5 mM MgCl2, BSA 0.01%) Multiscreen FB (1 μm) filter plate (Millipore, MAFBNOB 50).
The 96-well microtitre filter plates are firstly irrigated and coated with 0.1% of polyethylenimine.
The test is carried out under the following conditions: • Reaction temperature 22° C. • Reaction time: 30 min., shaking at 800 rpm • Test volume: 50 μl • Final concentrations: • 50 mM HEPES HCl, pH 7.0, 5 mM MgCl2, 0.01% (w/v) BSA • HSP90:1.5 μg/assay • [3H]17AAG: 0.08 μM.
At the end of the reaction, the supernatant in the filter plate is removed by suction with the aid of a vacuum manifold (Multiscreen Separation System, Millipore), and the filter is washed twice.
The filter plates are then measured in a beta counter (Microbeta, Wallac) with scintillator (Microscint 20, Packard).
“% of control” is determined from the “counts per minutes” values and the IC-50 value of a compound is calculated therefrom.
In the case of `COC(=O)c1cccc(COc2cc(-c3nc(N)nc4ccc(Cl)cc34)ccc2OC)c1` [Compound A108, 2-amino-6-chloro-4-[3-(3-methoxycarbonylbenzyloxy)-4-methoxyphenyl]quinazoline], the pIC50 is 6.02.

Turning to `COC(=O)c1ccc(COc2cc(-c3nc(N)nc4ccc(Cl)cc34)ccc2OC)cc1` [Compound A109, 2-amino-6-chloro-4-[3-(4-methoxycarbonylbenzyloxy)-4-methoxyphenyl]quinazoline], the pIC50 was 6.10.

In the case of `COc1ccc(-c2nc(N)nc3ccc(Cl)cc23)cc1OCCCC(=O)O` [Compound A111, 2-amino-6-chloro-4-[3-(3-carboxypropoxy)-4-methoxyphenyl]quinazoline sodium salt], the pIC50 is 6.24.

On to `COc1ccc(-c2nc(N)nc3ccc(Cl)cc23)cc1OCc1cccc(C(=O)O)c1` [Compound A112, 2-amino-6-chloro-4-[3-(3-carboxybenzyloxy)-4-methoxyphenyl]quinazoline sodium salt], for which the pIC50 is 6.33.

Take `COc1ccc(-c2nc(N)nc3ccc(Cl)cc23)cc1OCc1ccc(C(=O)O)cc1` [Compound A113, 2-amino-6-chloro-4-[3-(4-carboxybenzyloxy)-4-methoxyphenyl]quinazoline sodium salt]: the pIC50 is 6.43.

For `COc1ccc(-c2nc(N)nc3ccc(Cl)cc23)cc1OC` [Compound A134, 2-amino-6-chloro-4-(3,4-dimethoxyphenyl)quinazoline], the pIC50 is 6.26.

Regarding `COc1ccc(-c2nc(N)nc3ccc(Cl)cc23)cc1OCc1ccc(-c2nnn[nH]2)cc1` [Compound A138, 2-amino-6-chloro-4-{3-[4-(1H-tetrazol-5-yl)benzyloxy]-4-methoxyphenyl}quinazoline], the pIC50 was 6.27.
